Assay results published in patent US9249163B2, “PDE10a inhibitors for the treatment of type II diabetes” (Janssen Pharmaceutica, NV, priority 2013, dated 2016).
Where a name gives a salt, the structure may show the parent alone.

Key:
[1] = target: Human recombinant PDE10A2 (Homo sapiens (Human), UniProt Q9Y233); assay: In vitro hPDE10a (human recombinant PDE10A2, scintillation proximity assay); format: biochemical; conditions: human recombinant PDE10A2, 60 nM cAMP, 60 min at room temperature; read-out: hPDE10a2 IC50
Human recombinant PDE10A2, sequence (Q9Y233 267-1055): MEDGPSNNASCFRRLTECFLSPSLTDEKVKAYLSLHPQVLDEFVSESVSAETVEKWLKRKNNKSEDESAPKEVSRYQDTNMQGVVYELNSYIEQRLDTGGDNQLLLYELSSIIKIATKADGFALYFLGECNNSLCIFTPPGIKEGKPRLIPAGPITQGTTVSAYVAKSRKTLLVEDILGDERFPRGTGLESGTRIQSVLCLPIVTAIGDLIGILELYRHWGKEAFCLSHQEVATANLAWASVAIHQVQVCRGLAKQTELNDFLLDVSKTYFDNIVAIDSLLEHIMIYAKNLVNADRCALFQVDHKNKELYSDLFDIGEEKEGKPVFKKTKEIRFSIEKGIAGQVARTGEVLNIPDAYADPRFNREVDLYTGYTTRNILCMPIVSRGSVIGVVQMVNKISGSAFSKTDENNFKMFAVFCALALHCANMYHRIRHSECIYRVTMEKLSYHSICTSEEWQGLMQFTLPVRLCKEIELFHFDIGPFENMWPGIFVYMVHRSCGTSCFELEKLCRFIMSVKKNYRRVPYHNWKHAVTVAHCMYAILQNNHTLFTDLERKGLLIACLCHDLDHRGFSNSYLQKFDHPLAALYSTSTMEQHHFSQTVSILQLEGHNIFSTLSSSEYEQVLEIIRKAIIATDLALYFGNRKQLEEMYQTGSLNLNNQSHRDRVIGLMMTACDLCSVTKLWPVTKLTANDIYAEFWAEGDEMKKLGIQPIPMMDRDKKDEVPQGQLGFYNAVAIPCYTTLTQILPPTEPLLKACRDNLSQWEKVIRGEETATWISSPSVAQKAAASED

[2] = target: Rat recombinant PDE10a (rPDE10a) (Rattus norvegicus (Rat), UniProt Q9QYJ6); assay: In vitro assay PDE10a (rat recombinant PDE10a, SPA); format: biochemical; conditions: 60 nM cAMP, 60 min at rt, read-out: rPDE10a2 IC50
Rat recombinant PDE10a (rPDE10a), sequence (Q9QYJ6 whole entry): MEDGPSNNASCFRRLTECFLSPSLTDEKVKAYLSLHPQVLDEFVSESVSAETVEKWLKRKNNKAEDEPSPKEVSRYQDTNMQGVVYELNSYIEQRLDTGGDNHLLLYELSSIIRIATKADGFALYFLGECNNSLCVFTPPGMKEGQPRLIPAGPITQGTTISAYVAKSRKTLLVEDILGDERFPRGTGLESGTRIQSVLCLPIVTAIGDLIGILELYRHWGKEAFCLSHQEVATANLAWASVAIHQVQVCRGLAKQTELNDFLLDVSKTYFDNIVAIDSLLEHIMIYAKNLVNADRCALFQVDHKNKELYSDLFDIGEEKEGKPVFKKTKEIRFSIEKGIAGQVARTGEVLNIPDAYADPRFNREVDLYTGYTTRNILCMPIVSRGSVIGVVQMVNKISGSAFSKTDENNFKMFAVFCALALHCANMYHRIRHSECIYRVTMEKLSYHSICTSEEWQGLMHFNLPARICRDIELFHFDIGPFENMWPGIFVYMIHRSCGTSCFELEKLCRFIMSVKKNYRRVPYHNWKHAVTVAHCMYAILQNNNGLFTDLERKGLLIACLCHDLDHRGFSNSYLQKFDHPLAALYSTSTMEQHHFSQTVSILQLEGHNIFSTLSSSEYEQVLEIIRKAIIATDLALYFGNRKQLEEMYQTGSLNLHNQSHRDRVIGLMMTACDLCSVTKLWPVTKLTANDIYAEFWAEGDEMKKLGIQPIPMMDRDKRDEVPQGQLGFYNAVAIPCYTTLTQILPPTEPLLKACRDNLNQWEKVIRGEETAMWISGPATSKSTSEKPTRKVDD
How it was run: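 Rat PDE10a expressed in Sf9 cells (baculovirus) and Ni-sepharose purified. Incubated with compound for 60 min at rt in 50 mM Tris pH 7.8, 8.3 mM MgCl2, 1.7 mM EGTA with 60 nM cAMP plus 0.008 μCi ^3H-cAMP (final), 1% DMSO. Read-out by PDE SPA bead scintillation counting (cpm), no-enzyme blank.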

## C(=C\c1cn2c(-c3ccc(N4CCNCC4)nc3)cnc(C3CCOCC3)c2n1)/c1ccc2ccccc2n1 [Cpd 80, (E)-2-(2-(5-(6-(piperazin-1-yl)pyridin-3-yl)-8-(tetrahydro-2H-pyran-4-yl)imidazo[1,2-a]pyrazin-2-yl)vinyl)quinoline trifluoroacetic acid salt]
[1]
  IC50: 617 nM
[2]
  IC50: 562 nM

## COc1cc(-c2ncc(-c3ccc(N4CCNCC4)nc3)n3cc(/C=C/c4ccc5ccccc5n4)nc23)ccn1 [Cpd 81]
[1]
  IC50: 245 nM
[2]
  IC50: 91 nM

## COc1cc(-c2ncc(-c3ccc(N4CCNCC4)nc3)n3cc(COc4ccc5ccccc5n4)nc23)ccn1 [Cpd 82]
[1]
  IC50: 282 nM
[2]
  IC50: 245 nM

## NC(=O)c1ccc(-c2cnc(N3CCOCC3)c3nc(COc4ccc5ccccc5n4)cn23)cn1 [Cpd 84, 5-(8-Morpholino-2-((quinolin-2-yloxy)methyl)imidazo[1,2-a]pyrazin-5-yl)picolinamide]
[1]
  IC50: 16 nM
[2]
  IC50: 8 nM

## CS(=O)(=O)Nc1ccc(-c2cnc(N3CCOCC3)c3nc(COc4ccc5ccccc5n4)cn23)cn1 [Cpd 85, N-(5-(8-Morpholino-2-((quinolin-2-yloxy)methyl)imidazo[1,2-a]pyrazin-5-yl)pyridin-2-yl)methanesulfonamide]
[1]
  IC50: 1 nM
[2]
  IC50: 2 nM

## NS(=O)(=O)c1ccc(-c2cnc(N3CCOCC3)c3nc(COc4ccc5ccccc5n4)cn23)cn1 [Cpd 86, 5-(8-Morpholino-2-((quinolin-2-yloxy)methyl)imidazo[1,2-a]pyrazin-5-yl)pyridine-2-sulfonamide trifluoroacetic acid salt]
[1]
  IC50: 14 nM
[2]
  IC50: 16 nM

## NS(=O)(=O)c1ccc(-c2cnc(N3CCOCC3)c3nc(COc4ccc5ccccc5n4)cn23)cc1 [Cpd 87, 4-(8-Morpholino-2-((quinolin-2-yloxy)methyl)imidazo[1,2-a]pyrazin-5-yl)benzenesulfonamide]
[1]
  IC50: 1 nM
[2]
  IC50: 2 nM

## CC(=O)NS(=O)(=O)c1ccc(-c2cnc(N3CCOCC3)c3nc(COc4ccc5ccccc5n4)cn23)cc1 [Cpd 88, N-((4-(8-Morpholino-2-((quinolin-2-yloxy)methyl)imidazo[1,2-a]pyrazin-5-yl)phenyl)sulfonyl)acetamide]
[1]
  IC50: 9 nM
[2]
  IC50: 12 nM

## c1ccc2nc(OCc3cn4c(-c5ccc(-c6nnn[nH]6)cc5)cnc(N5CCOCC5)c4n3)ccc2c1 [Cpd 90, 4-(5-(4-(1H-Tetrazol-5-yl)phenyl)-2-((quinolin-2-yloxy)methyl)imidazo[1,2-a]pyrazin-8-yl)morpholine]
[1]
  IC50: 2 nM
[2]
  IC50: 1 nM

## Oc1nc2ncc(-c3cnc(N4CCOCC4)c4nc(/C=C/c5ccc6ccccc6n5)cn34)cc2[nH]1 [Cpd 94, (E)-6-(8-Morpholino-2-(2-(quinolin-2-yl)vinyl)imidazo[1,2-a]pyrazin-5-yl)-3H-imidazo[4,5-b]pyridin-2-ol]
[1]
  IC50: 8 nM
[2]
  IC50: 3 nM

## C(=C\c1cn2c(-c3ccc(-c4nnn[nH]4)nc3)cnc(N3CCOCC3)c2n1)/c1ccc2ccccc2n1 [Cpd 96, (E)-4-(5-(6-(1H-Tetrazol-5-yl)pyridin-3-yl)-2-(2-(quinolin-2-yl)vinyl)imidazo[1,2-a]pyrazin-8-yl)morpholine]
[1]
  IC50: 3 nM
[2]
  IC50: < 1 nM

## c1ccc2nc(SCc3cn4c(-c5ccc(N6CCNCC6)nc5)cnc(N5CCOCC5)c4n3)ccc2c1 [Cpd 98, 4-(5-(6-(piperazin-1-yl)pyridin-3-yl)-2-((quinolin-2-ylthio)methyl)imidazo[1,2-a]pyrazin-8-yl)morpholine trifluoroacetic acid salt]
[1]
  IC50: 58 nM
[2]
  IC50: 52 nM

## c1ccc2nc(N3CC(c4cn5c(-c6ccc(N7CCNCC7)nc6)cnc(N6CCOCC6)c5n4)C3)ccc2c1 [Cpd 99, 4-(5-(6-(piperazin-1-yl)pyridin-3-yl)-2-(1-(quinolin-2-yl)azetidin-3-yl)imidazo[1,2-a]pyrazin-8-yl)morpholine]
[1]
  IC50: 224 nM
[2]
  IC50: 204 nM

## c1ccc2nc(OCc3cn4c(-c5ccc(Sc6nnc[nH]6)nc5)cnc(N5CCOCC5)c4n3)ccc2c1 [Cpd 100, 4-(5-(6-((4H-1,2,4-triazol-3-yl)thio)pyridin-3-yl)-2-((quinolin-2-yloxy)methyl)imidazo[1,2-a]pyrazin-8-yl)morpholine]
[1]
  IC50: 29 nM
[2]
  IC50: 38 nM

## O=C(O)Cc1ccc(-c2cnc(N3CCOCC3)c3nc(COc4ccc5ccccc5n4)cn23)cn1 [Cpd 101, 2-(5-(8-Morpholino-2-((quinolin-2-yloxy)methyl)imidazo[1,2-a]pyrazin-5-yl)pyridin-2-yl)acetic acid]
[1]
  IC50: 15 nM
[2]
  IC50: 20 nM

## c1ccc2nc(CCc3cn4c(-c5ccc(N6CCNCC6)nc5)cnc(N5CCOCC5)c4n3)ccc2c1 [Cpd 102, 4-(5-(6-(piperazin-1-yl)pyridin-3-yl)-2-(2-(quinolin-2-yl)ethyl)imidazo[1,2-a]pyrazin-8-yl)morpholine trifluoroacetic acid salt]
[1]
  IC50: 35 nM
[2]
  IC50: 17 nM

## C(=C\c1ncccn1)/c1cn2c(-c3ccc(N4CCNCC4)nc3)cnc(N3CCOCC3)c2n1 [Cpd 103, (E)-4-(5-(6-(Piperazin-1-yl)pyridin-3-yl)-2-(2-(pyrimidin-2-yl)vinyl)imidazo[1,2-a]pyrazin-8-yl)morpholine]
[1]
  IC50: 676 nM
[2]
  IC50: 617 nM

## C(=C\c1ncc2ccccc2n1)/c1cn2c(-c3ccc(N4CCNCC4)nc3)cnc(N3CCOCC3)c2n1 [Cpd 104, (E)-4-(5-(6-(Piperazin-1-yl)pyridin-3-yl)-2-(2-(quinazolin-2-yl)vinyl)imidazo[1,2-a]pyrazin-8-yl)morpholine]
[1]
  IC50: 129 nM
[2]
  IC50: 68 nM

## C(=C\c1cn2c(-c3ccc(N4CCNCC4)nc3)cnc(N3CCOCC3)c2n1)/c1ccc2ccccc2n1 [Cpd 105, (E)-4-(5-(6-(piperazin-1-yl)pyridin-3-yl)-2-(2-(quinolin-2-yl)vinyl)imidazo[1,2-a]pyrazin-8-yl)morpholine trifluoroacetic acid salt]
[1]
  IC50: 50 nM
[2]
  IC50: 22 nM

## c1ccc2nc(OCc3cn4c(-c5ccc(C6CCNCC6)nc5)cnc(N5CCOCC5)c4n3)ccc2c1 [Cpd 106, 4-(5-(6-(Piperidin-4-yl)pyridin-3-yl)-2-((quinolin-2-yloxy)methyl)imidazo[1,2-a]pyrazin-8-yl)morpholine trifluoroacetic acid salt]
[1]
  IC50: 89 nM
[2]
  IC50: 15 nM

## C1=C(c2ccc(-c3cnc(N4CCOCC4)c4nc(COc5ccc6ccccc6n5)cn34)cn2)CCNC1 [Cpd 108, 4-(2-((quinolin-2-yloxy)methyl)-5-(1′,2′,3′,6′-tetrahydro-[2,4′-bipyridin]-5-yl)imidazo[1,2-a]pyrazin-8-yl)morpholine methane sulfonic acid salt]
[1]
  IC50: 35 nM
[2]
  IC50: 23 nM

## COC1CCN(c2ncc(-c3ccc(N4CCNCC4)nc3)n3cc(COc4ccc5ccccc5n4)nc23)CC1 [Cpd 112, 2-((8-(4-Methoxypiperidin-1-yl)-5-(6-(piperazin-1-yl)pyridin-3-yl)imidazo[1,2-a]pyrazin-2-yl)methoxy)quinoline trifluoroacetic acid salt]
[1]
  IC50: 89 nM
[2]
  IC50: 95 nM

## CC(=O)N1CCN(c2ncc(-c3ccc(N4CCNCC4)nc3)n3cc(COc4ccc5ccccc5n4)nc23)CC1 [Cpd 113]
[1]
  IC50: 224 nM
[2]
  IC50: 151 nM

## c1ccc2nc(C3CN(c4cn5c(-c6ccc(N7CCNCC7)nc6)cnc(N6CCOCC6)c5n4)C3)ccc2c1 [Cpd 114, 4-(5-(6-(piperazin-1-yl)pyridin-3-yl)-2-(3-(quinolin-2-yl)azetidin-1-yl)imidazo[1,2-a]pyrazin-8-yl)morpholine trifluoroacetic acid salt]
[1]
  IC50: 1350 nM
[2]
  IC50: 2000 nM

## O=C1CN(c2ncc(-c3ccc(N4CCNCC4)nc3)n3cc(COc4ccc5ccccc5n4)nc23)CCN1 [Cpd 115, 4-(5-(6-(piperazin-1-yl)pyridin-3-yl)-2-((quinolin-2-yloxy)methyl)imidazo[1,2-a]pyrazin-8-yl)piperazin-2-one trifluoroacetic acid salt]
[1]
  IC50: 85 nM
[2]
  IC50: 40 nM

## c1cnc(OCc2cn3c(-c4ccc(N5CCNCC5)nc4)cnc(N4CCOCC4)c3n2)nc1 [Cpd 116, 4-(5-(6-(piperazin-1-yl)pyridin-3-yl)-2-((pyrimidin-2-yloxy)methyl)imidazo[1,2-a]pyrazin-8-yl)morpholine trifluoroacetic acid salt]
[1]
  IC50: 2630 nM
[2]
  IC50: 3630 nM

## O=S1(=O)CCN(c2ncc(-c3ccc(N4CCNCC4)nc3)n3cc(COc4ccc5ccccc5n4)nc23)CC1 [Cpd 117, 4-(5-(6-(Piperazin-1-yl)pyridin-3-yl)-2-((quinolin-2-yloxy)methyl)imidazo[1,2-a]pyrazin-8-yl)thiomorpholine 1,1-dioxide trifluoroacetic acid salt]
[1]
  IC50: 56 nM
[2]
  IC50: 32 nM

## OC1CCN(c2ncc(-c3ccc(N4CCNCC4)nc3)n3cc(COc4ccc5ccccc5n4)nc23)CC1 [Cpd 118, 1-(5-(6-(Piperazin-1-yl)pyridin-3-yl)-2-((quinolin-2-yloxy)methyl)imidazo[1,2-a]pyrazin-8-yl)piperidin-4-ol trifluoroacetic acid salt]
[1]
  IC50: 78 nM
[2]
  IC50: 30 nM

## c1ccc2nc(OCc3cn4c(-c5ccc(N6CCNCC6)nc5)cnc(-c5ccncc5)c4n3)ccc2c1 [Cpd 120, 2-((5-(6-(Piperazin-1-yl)pyridin-3-yl)-8-(pyridin-4-yl)imidazo[1,2-a]pyrazin-2-yl)methoxy)quinoline trifluoroacetic acid salt]
[1]
  IC50: 20 nM
[2]
  IC50: 15 nM

## CN1CCN(c2ncc(-c3cnc(N4CCOCC4)c4nc(COc5ccc6ccccc6n5)cn34)cn2)CC1 [Cpd 123, 4-(5-(2-(4-Methylpiperazin-1-yl)pyrimidin-5-yl)-2-((quinolin-2-yloxy)methyl)imidazo[1,2-a]pyrazin-8-yl)morpholine methane sulfonic acid salt]
[1]
  IC50: 19 nM
[2]
  IC50: 8 nM
